Experimental data from paper PMC7011974, “Benzimidazole derivatives endowed with potent antileishmanial activity” (Journal of Enzyme Inhibition and Medicinal Chemistry, 2017).
Like-named read-outs stand apart in the source and are kept apart here.

What was measured:
[1] = tested on: serum cholesterol concentration; design: method as in ref 21 = [21]; 21 (a) Sparatore F , Boido V , Fanelli F. Dialkylaminoalkylbenzimi-dazoles of pharmacological interest . Farmaco Sci 1968; 23 : 344 – 59 . (b) Paglietti G , Sparatore F. Dialkylaminoalkyl-benzimidazo; conditions: hypercholesterolemic mice, 50 mg/kg p.os; cited from earlier work
[2] = tested on: human microvascular endothelial cell line (HMEC-1); assay: Cytotoxicity on HMEC-1 cells (MTT); assay type: cell-based; conditions: for IC50: Homo sapiens, cytotoxicity, HMEC-1 cells, MTT; for Selectivity index (SI) range versus HMEC cells: range over L. tropica and L. infantum; for SI L. infantum (IC50 HMEC-1/IC50 L. infantum) / SI L. tropica (IC50 HMEC-1/IC50 L. tropica): selectivity index
[3] = Cytotoxicity on Vero-76 cells (crystal violet); conditions: monkey, Vero-76 cells
[4] = tested on: monkey kidney (Vero76) cells; assay: Cytotoxicity on Vero-76 cells (crystal violet)
[5] = tested on: L. infantum promastigotes; assay: Antileishmanial activity on L. infantum promastigotes (MTT); assay type: cell-based, Leishmania infantum; conditions: for IC50: Leishmania infantum, 72 h, read-out: IC50 (µM) L. infantum; for Fold more potent than miltefosine against L. infantum, taking the lowest literature IC50 (15 μM): miltefosine IC50 15 μM from literature
[6] = tested on: L. tropica promastigotes; assay: Antileishmanial activity on L. tropica promastigotes (MTT); assay type: cell-based, Leishmania tropica; conditions: for IC50: Leishmania tropica, 72 h, read-out: IC50 (µM) L. tropica; for Antileishmanial activity in words: promastigotes of L. tropica and/or L. infantum
[7] = tested on: intramacrophagic amastigote stage of L. infantum; assay: In vitro intracellular amastigote susceptibility assay in THP-1 macrophages; assay type: cell-based, Leishmania infantum; conditions: for IC50: Leishmania infantum, THP-1 macrophages, 72 h, read-out: IC50 against intramacrophagic amastigote stage of L. infantum
Description: (b) In vitro intracellular amastigote susceptibility assays. […] Cell monolayers were then washed and incubated with compounds for 72 h. Slides were fixed with methanol and stained with Giemsa. The percentage of infected macrophages in treated and non-treated cells was determined by light microscopy.

[8] = tested on: renal cancer cell line UO31; design: method as in ref 25b = [25]; 25 (a) Novelli F , Tasso B , Sparatore F. Synthesis and biological investigations of 2-(tetrahydropyran-2'-yl) and 2-(tetrahydrofuran-2'-yl)benzimidazoles . Farmaco 1997; 52 : 499 – 507 . (b) Tonelli; conditions: ref 25b; cited from earlier work
[9] = tested on: Coxsackie virus B5 (CVB-5); design: method as in ref 24c = [24]; 24 (a) Tonelli M , Paglietti G , Boido V , et al Antiviral activity of benzimidazole derivatives. I. Antiviral activity of 1-substituted-2-[(benzotriazol-1/2-yl)methyl]benzimidazoles . Chem Biodivers; conditions: ref 24c; cited from earlier work
[10] = tested on: respiratory syncytial virus (RSV); design: method as in ref 24c = [24]; 24 (a) Tonelli M , Paglietti G , Boido V , et al Antiviral activity of benzimidazole derivatives. I. Antiviral activity of 1-substituted-2-[(benzotriazol-1/2-yl)methyl]benzimidazoles . Chem Biodivers; conditions: ref 24c; cited from earlier work
[11] = tested on: 24 human cancer cell lines; design: method as in ref 25b = [25]; 25 (a) Novelli F , Tasso B , Sparatore F. Synthesis and biological investigations of 2-(tetrahydropyran-2'-yl) and 2-(tetrahydrofuran-2'-yl)benzimidazoles . Farmaco 1997; 52 : 499 – 507 . (b) Tonelli; conditions: ref 25b; read-out: GI50 against 24 human cancer cell lines; cited from earlier work
[12] = in vitro; conditions: monkey
[13] = tested on: promastigote stage of L. infantum; conditions: read-out: IC50 of miltefosine versus promastigote stage of L. infantum, literature, cited from earlier work
[14] = promastigotes, MTT, starred values mean of two experiments
[15] = fold potency versus miltefosine
[16] = percent of amphotericin B potency, calculated for each experiment

| SMILES | IC50 [3] [µM] | SI L. infantum (IC50 Vero76/IC50 L. infantum) ([4]; selectivity index, Vero76) | SI L. tropica (IC50 Vero76/IC50 L. tropica) ([4]; selectivity index, Vero76) | IC50 ([5]; promastigotes, MTT) [µM] | IC50 [6, 14] [µM] | Ratio IC50 miltef./IC50 compd., L. tropica [6, 15] | IC50 amph. B ×100/IC50 compd., L. tropica [6, 16] | Ratio IC50 miltef./IC50 compd., L. infantum [5, 15] | IC50 amph. B ×100/IC50 compd., L. infantum [5, 16] | also measured |
| --- | --- | --- | --- | --- | --- | --- | --- | --- | --- | --- |
| CCN(CC)CCCn1c(Cc2ccc(Cl)cc2)nc2cc(C(F)(F)F)ccc21 [2-(4-chlorobenzyl)-1-(3-diethylaminopropyl)-5-trifluoromethylbenzimidazole] | – | – | – | – | – | – | – | – | – | Reduction of serum cholesterol concentration [1]: > 15% |
| CCCCCCCCCCCc1n(C)c2ccccc2[n+]1CCC.[I-] [Compound 4, 1-Methyl-3-propyl-2-undecyl-1 H-benzimidazol-3-ium iodide] | 2.6 | 9.63 | 5.65 | 0.27 ± 0.01 | 0.46 | 94.0 | 17.9 | – | – | melting point: 140.2 to 145 °C; IC50 [2]: 2.01 ± 0.24 µM; Selectivity index (SI) range versus HMEC cells [2]: 2.3–7.4; SI L. infantum (IC50 HMEC-1/IC50 L. infantum) [2]: 7.44; SI L. tropica (IC50 HMEC-1/IC50 L. tropica) [2]: 4.37; Fold more potent than miltefosine against L. infantum, taking the lowest literature IC50 (15 μM) [5]: 55 fold |
| FC(F)(F)c1ccc2c(c1)nc(-c1ccc(Cl)cc1)n2C[C@@H]1CCCN2CCCC[C@H]12 [Compound 36, N-lupinyl-5-trifluoromethyl-2-(4-chlorophenyl)benzimidazole] | 24 | 1.92 | 1.90 | 12.5 ± 3.51 | 12.6 ± 4.54 | 3.4 | 0.69 | 2.5 | 0.95 | – |
| CCCCCCCCCCCCCCCc1n(C)c2ccccc2[n+]1C.[I-] [Compound 8, 1,3-Dimethyl-2-pentadecyl-1 H-benzimidazol-3-ium iodide] | 5.8 | – | – | 0.34 ± 0.12 | 0.19 ± 0.06 | – | – | – | 27.8 | melting point: 169 to 172 °C; Fold increased potency with respect to miltefosine, amastigotes ([7]; L. infantum amastigotes in THP-1): 3.35 fold; IC50 [7]: 0.313 µM; IC50 [2]: 0.78 ± 0.06 µM; Selectivity index (SI) range versus HMEC cells [2]: 2.3–7.4; SI L. infantum (IC50 HMEC-1/IC50 L. infantum) [2]: 2.29; SI L. tropica (IC50 HMEC-1/IC50 L. tropica) [2]: 4.10; Fold more potent than miltefosine against L. infantum, taking the lowest literature IC50 (15 μM) [5]: 43 fold |
| FC(F)(F)c1ccc2c(c1)nc(Cc1ccc(Cl)cc1)n2C[C@@H]1CCCN2CCCC[C@H]12 [Compound 28, 2-(4-chlorobenzyl)-1-lupinyl-5-trifluoromethylbenzimidazole] | – | – | – | 4.76 ± 1.6 | 3.7 ± 1.19 | – | 4.8 | – | 4.4 | GI50 [8]: 0.019 µM; EC50 [9]: 13 µM; Reduction of the amastigote infection of THP-1 cells ([7]; 2 μM concentration): 33.2%; IC50 [7]: > 2 µM; EC50 [10]: 15 µM; GI50 [11]: < 5 µM; IC50 [12]: > 100 µM; IC50 [2]: 16.9 µM |
| FC(F)(F)c1ccc2c(c1)nc(-c1ccccc1)n2C[C@@H]1CCCN2CCCC[C@H]12 [Compound 35] | 90 | 7.44 | 12.3 | 12.1 ± 1.82 | 7.31 ± 2.75 | 5.9 | 2.42 | 2.6 | 1.73 | – |
| COc1ccc(-c2nc3cc(C(F)(F)F)ccc3n2CCN(C)C)cc1 [Compound 26] | > 100 | – | >3.37 | > 55 | 29.6 ± 0.3 | 1.5 | 0.60 | – | – | Antileishmanial activity in words [6]: moderately active |
| CC(=O)c1ccc2c(c1)nc(Cc1ccc(Cl)cc1)n2C[C@@H]1CCCN2CCCC[C@H]12 [Compound 30] | > 100 | >6.30 | >8.24 | 15.9 ± 3.21 | 12.1 ± 4.06 | 3.6 | 1.46 | 2.0 | 1.32 | – |
| CCN(CC)CCCn1c(-c2ccc(OC)cc2)nc2cc(C(F)(F)F)ccc21 [Compound 27] | > 100 | >3 | >4.74 | 32.7 ± 3.92 | 21.1 ± 5.84 | 2.1 | 0.84 | 1.0 | 0.64 | Antileishmanial activity in words [6]: moderately active |
| O=[N+]([O-])c1ccc2c(c1)nc(Cc1ccc(Cl)cc1)n2C[C@@H]1CCCN2CCCC[C@H]12 [Compound 33] | – | – | – | – | – | – | – | – | – | IC50 [12]: 68 µM; SI L. infantum (IC50 Vero76/IC50 L. infantum) [4]: 9.97; SI L. tropica (IC50 Vero76/IC50 L. tropica) [4]: 17.35; IC50 amph. B ×100/IC50 compd., L. infantum [5]: 1.73; Ratio IC50 miltef./IC50 compd., L. infantum [5]: 4.6; IC50 [5]: 6.82 ± 1.25 µM; IC50 amph. B ×100/IC50 compd., L. tropica [6]: 2.63; Ratio IC50 miltef./IC50 compd., L. tropica [6]: 11.0; IC50 [6]: 3.92 ± 1.43 µM |
| Oc1ccc(-c2nc3cc(C(F)(F)F)ccc3n2C[C@@H]2CCCN3CCCC[C@H]23)cc1 [Compound 37] | 78 | 4.49 | 5.76 | 17.4 ± 1.49 | 13.5 ± 2.21 | 3.2 | 1.31 | 1.8 | 1.20 | – |
| CCCCCCCCCCCCCCCCOP(=O)([O-])OCC[N+](C)(C)C [Miltefosine, miltefosine, reference compound] | – | – | – | 31.3 ± 10.4 | 43 | 1.0 | 0.26 | 1.0 | 0.27 | IC50 ([13]; ref 6c): 16.7 µM; IC50 ([13]; ref 11a): 15 µM; IC50 ([13]; ref 13b): 19.6 µM; IC50 [2]: 99.8 µM; SI L. infantum (IC50 HMEC-1/IC50 L. infantum) [2]: 3.2 |
| O=[N+]([O-])c1ccc2c(c1)nc(Cc1ccccc1)n2C[C@@H]1CCCN2CCCC[C@H]12 [Compound 32] | – | – | – | – | – | – | – | – | – | IC50 [12]: 50 µM; SI L. infantum (IC50 Vero76/IC50 L. infantum) [4]: 5.23; SI L. tropica (IC50 Vero76/IC50 L. tropica) [4]: 6.93; IC50 amph. B ×100/IC50 compd., L. infantum [5]: 1.24; Ratio IC50 miltef./IC50 compd., L. infantum [5]: 3.3; IC50 [5]: 9.55 ± 3.11 µM; IC50 amph. B ×100/IC50 compd., L. tropica [6]: 1.43; Ratio IC50 miltef./IC50 compd., L. tropica [6]: 6.0; IC50 [6]: 7.22 ± 3.13 µM |
| COc1ccc(Cc2nc3cc([N+](=O)[O-])ccc3n2C[C@@H]2CCCN3CCCC[C@H]23)cc1 [Compound 34] | – | – | – | – | – | – | – | – | – | IC50 [12]: 49 µM; SI L. infantum (IC50 Vero76/IC50 L. infantum) [4]: 7.33; SI L. tropica (IC50 Vero76/IC50 L. tropica) [4]: 14.24; IC50 amph. B ×100/IC50 compd., L. infantum [5]: 1.77; Ratio IC50 miltef./IC50 compd., L. infantum [5]: 4.7; IC50 [5]: 6.68 ± 1.74 µM; IC50 amph. B ×100/IC50 compd., L. tropica [6]: 2.99; Ratio IC50 miltef./IC50 compd., L. tropica [6]: 12.6; IC50 [6]: 3.44 ± 1.43 µM |
| COc1ccc(-c2nc3cc(C(F)(F)F)ccc3n2C[C@@H]2CCCN3CCCC[C@H]23)cc1 [Compound 38] | 75 | 6.68 | 11.47 | 11.2 ± 1.33 | 6.54 ± 0.18 | 6.6 | 2.71 | 2.8 | 1.86 | – |
